Experimental data as given in US20080119548A1, “Control Of Feeding Behavior By Changing Neuronal Energy Balance” (priority 2004, published 2008).
Like-named read-outs stand apart in the source and are kept apart here.

How the values were obtained:
[1] = chronic subcutaneous AICAR 1 g/kg bodyweight for 4 weeks; cited from earlier work
hypothalamic NPY = test system: hypothalamic NPY
Experimental: Hypothalamic total RNA was purified using Trizol reagent (Gibco-BRL) and Northern blot analysis using 15 μg of total RNA was performed as described by Kim, et al, Am J Physiol Endocrinol Metab., 283, […]-879 (2002). RNA was hybridized with random primed ^32P-labeled DNA probes made from cloned plasmids of mouse AGRP (Genebank #U89486), human NPY (XM004941), rat CART (U10071), and mouse POMC (AH005319). As a loading control, the probe for mouse GAPDH gene was used at the same blot. The signals were quantified using an image analyzer (Molecular Dynamics) and Imagequant software.

[2] = test system: hypothalamic AMPKα (α1 and α2); assay: Western blot of phosphorylated AMPKα in hypothalamus; type: in vivo, mice; settings: 30 min after i.c.v. injection
Experimental: Hypothalami were dissected using as landmarks the optic chiasm rostrally, and the mammillary bodies caudally to a depth of 2 mm. Dissected hypothalamic and liver tissue were immediately frozen in liquid nitrogen. Tissues were homogenized in 200 μl of lysis buffer (50 mM Tris-HCl, pH 7.5, 250 mM sucrose, 5 mM sodium pyrophosphate, 50 mM NaF, 1 mM EDTA, 1 mM EGTA, 1 mM DTT, 0.5 mM PMSF, 0.1 mM benzamidine, 50 μg/ml leupeptin, 50 μg/ml soybean trypsin inhibitor). SDS detergent was added to a final 0.2%, and lysates were boiled for 5 min. After the supernatant was harvested, protein concentration was determined by BCA kit (Bio Rad). Phosphorylation of AMPKα was determined on a 4-15% gradient SDS-polyacrylamide gel using anti-phospho-AMPKα (α1 and α2, Thr172) antibody (1:1000, Cell Signaling). Anti-AMPKαt antibody (α1 and α2, 1:1000, Cell Signaling) was used as a loading control.

[3] = Changes in bodyweight 24 hr after i.c.v. injection; type: in vivo, mice
Description: (d) Changes in bodyweight 24 hr after i.c.v. injection of C75, AICAR or compound C (n=4-10). Mice were implanted with permanent stainless steel cannulae into the lateral ventricle of the brain 0.6 mm caudal to Bregma, 1.2 mm lateral to the midline, and sunk to a depth of 2.2 mm below the surface of the skull. Implanted mice were housed in individual cages and utilized for i.c.v. and i.p. injections as indicated. C75 dissolved in RPMI1640 (Gibco-BRL), AICAR (Toronto Research Chemicals Inc) or compound […], Inc.) in saline was injected i.c.v., such that desired dose could be administered in a volume of 2.5 μl, while control groups received vehicle only. Injections were done immediately preceding dark onset and food intake measurements were taken at 1 hr (0-1 hr interval), 3 hr (1-3 hr interval), and 24 hr (3-24 hr interval) after dark onset. […]. treatment groups were i.p. injected with 5 mg/kg bodyweight C75 dissolved in […] of glucose-free RPMI 1 hr before the dark onset, followed by 3 μg/2.5 μl saline i.c.v. AICAR immediately preceding the dark onset. Control groups received 200 μl of glucose free RPMI 1 hr before lights off and 2.5 μl of saline. Administration of i.p. compound C (10 or 30 mg/kg bodyweight) or C75 (10 mg/kg bodyweight) was followed by food intake measurement at the same times indicated.

BALB/c male mice = assay: Measurement of food intake after i.c.v. or i.p. injection; type: in vivo; settings: for reduction in food intake: compound C 5 mg i.c.v.
Experimental: Male BALB/c mice (7-9 weeks) were purchased from Charles River Laboratories (and housed in a controlled-light (12 hr light/12 hr dark cycle) environment (lights on 0200-1400 h) and allowed ad libitum access to standard laboratory chow and water. For fasting, food was withdrawn from cage at the onset of the dark cycle for 24 hr, but ad libitum access to water was allowed.
Mice were implanted with permanent stainless steel cannulae into the lateral ventricle of the brain 0.6 mm caudal to Bregma, 1.2 mm lateral to the midline, and sunk to a depth of 2.2 mm below the surface of the skull. Implanted mice were housed in individual cages and utilized for i.c.v. and i.p. injections as indicated. C75 dissolved in RPMI1640 (Gibco-BRL), AICAR (Toronto Research Chemicals Inc) or compound C (46) (FASgen, Inc.) in saline was injected i.c.v., such that desired dose could be administered in a volume of 2.5 μl, while control groups received vehicle only. Injections were done immediately preceding dark onset and food intake measurements were taken at 1 hr (0-1 hr interval), 3 hr (1-3 hr interval), and 24 hr (3-24 hr interval) after dark onset. C75 i.p./AICAR i.c.v. treatment groups were i.p. injected with 5 mg/kg bodyweight C75 dissolved in […] of glucose-free RPMI 1 hr before the dark onset, followed by 3 μg/2.5 μl saline i.c.v. AICAR immediately preceding the dark onset. Control groups received 200 μl of glucose free RPMI 1 hr before lights off and 2.5 μl of saline. Administration of i.p. compound C (10 or 30 mg/kg bodyweight) or C75 (10 mg/kg bodyweight) was followed by food intake measurement at the same times indicated.

pCREB = assay: Immunohistochemistry of pCREB in the arcuate nucleus; type: in vivo, mice; settings: AICAR (3 mg) i.c.v., 20 hr after injection
Experimental: Free-floating sections were blocked in PBS containing 5% goat serum, 0.1% BSA, 0.05% Triton-X100, 1 mM NaF for 1 hr at room temperature and incubated with anti-phospho-AMPKα (α1 and α2) antibody (1:100) or anti-phospho-CREB antibody (1:500, Cell Signaling) in PBS containing 1% goat serum, 0.1% BSA, 0.05% Triton-X100, 1 mM NaF overnight at 4° C. Signal was visualized by Vectastain ABC kit (Vector). Images of in situ hybridization and immunohistochemistry were visualized using an Axiocam HRc digital camera (Carl Zeiss) and images were acquired using Improvision Openlab software, and quantified by NIH Image program (Macro).

Q: For `NC(=O)c1ncn([C@@H]2O[C@H](CO)[C@@H](O)[C@H]2O)c1N` [AICAR, 5-aminoimidazole-4-carboxamide-1-b-D-ribofuranoside], which bodyweight [1] is on record?
A: The bodyweight was “no impact”.

Q: What about the fat pad mass [1] of the same compound?
A: The fat pad mass was “reduction in fat pad mass”.

Q: What about the food intake [1] of the same compound?
A: Its food intake is “no impact”.

Q: What about the liver mass [1] of the same compound?
A: Its liver mass is “increase in liver mass”.

Q: What about the “hypothalamic NPY expression” value (hypothalamic NPY; AICAR (3 mg) i.c.v., 20 hrs after administration, p<0.001) of the same compound?
A: Its value is “significantly increased”.

Q: And the NPY expression (hypothalamic NPY; AICAR i.c.v., within 5 hr (data not shown))?
A: Its NPY expression is “no change”.

Q: What about the “C75-induced decrease in hypothalamic pAMPKα levels” value ([2]; i.p. C75 and i.c.v. AICAR) of the same compound?
A: The value was “completely reversed”.

Q: And the “hypothalamic pAMPKα level” value ([2]; i.p. RPMI and i.c.v. AICAR, vs vehicle)?
A: Its value is “increased”.

Q: And the bodyweight ([3]; AICAR single dose 3 μg i.c.v.)?
A: Its bodyweight is “no significant effect on bodyweight”.

Q: And the “food intake, % of control” value (BALB/c male mice; AICAR 3 μg i.c.v., 3-24 hr)?
A: Its value is 135%.

Q: And the “total 24 hr food intake, % of control” value (BALB/c male mice; AICAR 3 μg i.c.v., total 24 hr)?
A: The value was 130 % of control.

Q: And the “food intake, % of control” value (BALB/c male mice; AICAR 3 μg i.c.v., within 1 hr)?
A: Its value is 230%.

Q: And the “food intake at 1 hr, % of the amount of C75/saline treatment” value (BALB/c male mice; C75 5 mg/kg i.p. followed 1 hr later by AICAR 3 mg i.c.v., p<0.001)?
A: Its value is 346%.

Q: And the “pCREB level in the arcuate, % of control” value (pCREB)?
A: The value was 231 % of control.

Q: For `c1cc(-c2cnn3cc(-c4ccc(OCCN5CCCCC5)cc4)cnc23)ccn1` [compound C], which bodyweight ([3]; compound C 5 mg i.c.v.) is on record?
A: The bodyweight was “weight loss”.

Q: What about the “reduction in food intake” value (BALB/c male mice; 0-1 hr) of the same compound?
A: The value was 36.2%.

Q: And the “reduction in food intake” value (BALB/c male mice; 3-24 hr)?
A: Its value is 37.8%.

Q: And the “reduction in food intake” value (BALB/c male mice; over 24 hr)?
A: Its value is 35.6%.

Q: And the “food intake, % of control” value (BALB/c male mice; compound C 30 mg/kg bodyweight i.p., 0-1 hr)?
A: The value was 27.4 % of control.

Q: And the “food intake, % of control” value (BALB/c male mice; compound C 30 mg/kg bodyweight i.p., 1-3 hr)?
A: Its value is 3.68 % of control.

Q: And the “food intake, % of control” value (BALB/c male mice; compound C 30 mg/kg bodyweight i.p., 3-24 hr)?
A: Its value is 65.7 % of control.

Q: What about the “food intake, % of control” value (BALB/c male mice; compound C 30 mg/kg bodyweight i.p., total) of the same compound?
A: Its value is 57.8 % of control.
